# Structures can show the parent of a compound that is named as a salt.
# Target: PI3Kδ (p110δ/p85α) (Homo sapiens (Human), UniProt O00329)
# Assay: Example A3: PI3Kδ scintillation proximity assay
# Assay type: biochemical
# Settings: scintillation proximity assay, 20 μM ATP, 4 nM PI3Kδ; read-out: PI3Kδ SPA IC50
# Protocol: [γ-^33P]ATP (10 mCi/mL) was purchased from Perkin-Elmer (Waltham, Mass.). […] PI3Kδ (p110δ/p85α) was purchased from Millipore (Bedford, Mass.). ATP, MgCl2, DTT, EDTA, MOPS and CHAPS were purchased from Sigma-Aldrich (St. Louis, Mo.). Wheat Germ Agglutinin (WGA) YSi SPA Scintillation Beads was purchased from GE healthcare life sciences (Piscataway, N.J.).
# The kinase reaction was conducted in polystyrene 384-well matrix white plate from Thermo Fisher Scientific in a final volume of 25 μL. Inhibitors were first diluted serially in DMSO and added to the plate wells before the addition of other reaction components. The final concentration of DMSO in the assay was 0.5%. The PI3K assays were carried out at room temperature in 20 mM MOPS, pH 6.7, 10 mM MgCl2, 5 mM DTT and CHAPS 0.03%. Reactions were initiated by the addition of ATP, the final reaction mixture consisted of 20 μM PIP2, 20 μM ATP, 0.2 μCi [γ-^33P] ATP, 4 nM PI3Kδ. […] 25 mM EDTA, 400 μM ATP. The final concentration of SPA beads was 1.0 mg/mL. After the plate sealing, plates were shaken overnight at room temperature and centrifuged at 1800 rpm for 10 minutes, the radioactivity of the product was determined by scintillation counting on Topcount (Perkin-Elmer). IC50 determination was performed by fitting the curve of percent control activity versus the log of the inhibitor concentration using the GraphPad Prism 3.0 software.
# Sequence of PI3Kδ (p110δ/p85α) (O00329 whole entry): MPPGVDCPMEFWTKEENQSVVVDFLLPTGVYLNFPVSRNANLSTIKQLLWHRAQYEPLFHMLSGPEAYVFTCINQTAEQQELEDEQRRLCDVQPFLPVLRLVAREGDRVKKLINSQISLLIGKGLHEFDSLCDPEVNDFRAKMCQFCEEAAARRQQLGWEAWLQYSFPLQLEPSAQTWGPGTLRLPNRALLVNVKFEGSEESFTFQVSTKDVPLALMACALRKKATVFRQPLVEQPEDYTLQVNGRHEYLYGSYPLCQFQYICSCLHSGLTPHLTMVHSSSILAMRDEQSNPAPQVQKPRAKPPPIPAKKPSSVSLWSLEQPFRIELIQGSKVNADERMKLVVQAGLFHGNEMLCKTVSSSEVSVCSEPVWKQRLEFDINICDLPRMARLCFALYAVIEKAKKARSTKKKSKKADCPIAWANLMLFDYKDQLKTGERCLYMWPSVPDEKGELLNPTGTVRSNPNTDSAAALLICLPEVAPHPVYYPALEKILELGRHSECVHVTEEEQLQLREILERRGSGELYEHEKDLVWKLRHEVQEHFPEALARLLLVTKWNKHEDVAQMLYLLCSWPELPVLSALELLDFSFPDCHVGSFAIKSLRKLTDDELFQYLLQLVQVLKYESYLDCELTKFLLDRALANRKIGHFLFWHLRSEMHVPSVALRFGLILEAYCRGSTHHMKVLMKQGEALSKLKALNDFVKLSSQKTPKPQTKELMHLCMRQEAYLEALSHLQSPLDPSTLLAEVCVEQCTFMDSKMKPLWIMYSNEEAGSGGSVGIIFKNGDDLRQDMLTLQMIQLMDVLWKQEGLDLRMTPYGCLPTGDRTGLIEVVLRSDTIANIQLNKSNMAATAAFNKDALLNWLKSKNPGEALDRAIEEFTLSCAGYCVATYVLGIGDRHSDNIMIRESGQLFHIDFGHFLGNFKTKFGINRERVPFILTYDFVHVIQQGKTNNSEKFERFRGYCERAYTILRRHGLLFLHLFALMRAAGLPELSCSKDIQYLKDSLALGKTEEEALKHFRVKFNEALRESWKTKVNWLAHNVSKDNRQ
# Sequence of PI3Kδ (p110δ/p85α) (P27986 whole entry partner): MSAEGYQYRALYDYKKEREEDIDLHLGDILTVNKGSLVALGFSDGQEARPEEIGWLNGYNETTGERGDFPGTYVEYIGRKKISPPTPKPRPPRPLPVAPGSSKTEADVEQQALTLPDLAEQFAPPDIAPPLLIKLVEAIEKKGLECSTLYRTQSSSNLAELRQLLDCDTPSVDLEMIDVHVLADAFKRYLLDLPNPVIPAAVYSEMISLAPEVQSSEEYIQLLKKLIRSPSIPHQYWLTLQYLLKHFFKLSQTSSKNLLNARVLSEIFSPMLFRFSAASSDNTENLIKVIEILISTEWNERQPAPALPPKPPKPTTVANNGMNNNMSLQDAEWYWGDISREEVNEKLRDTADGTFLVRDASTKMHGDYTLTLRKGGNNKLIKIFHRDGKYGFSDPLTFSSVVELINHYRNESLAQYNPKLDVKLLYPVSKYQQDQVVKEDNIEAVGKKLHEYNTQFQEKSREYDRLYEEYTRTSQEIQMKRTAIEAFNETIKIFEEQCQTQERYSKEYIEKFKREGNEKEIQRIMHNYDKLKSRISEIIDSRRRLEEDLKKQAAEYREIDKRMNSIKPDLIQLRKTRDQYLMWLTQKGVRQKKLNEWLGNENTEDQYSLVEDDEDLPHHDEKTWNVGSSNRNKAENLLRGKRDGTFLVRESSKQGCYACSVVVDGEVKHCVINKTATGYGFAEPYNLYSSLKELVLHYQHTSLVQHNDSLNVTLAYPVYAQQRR
row,IC50 [nM],SMILES
1,< 10,"COc1c(C(C)n2nc(C(F)F)c3c(N)ncnc32)cc(C#N)c(C)c1C1CN(C(C)C)C1 (racemic) [Example 128, 5-{1-[4-amino-3-(difluoromethyl)-1H-pyrazolo[3,4-d]pyrimidin-1-yl]ethyl}-3-(1-isopropylazetidin-3-yl)-4-methoxy-2-methylbenzonitrile]"
2,< 10,"CCOc1c(C(C)n2nc(C)c3c(N)ncnc32)cc(Cl)c(C#N)c1-c1ccc(C(=O)N(C)C)nc1 (racemic) [Example 44, 5-(3-(1-(4-amino-3-methyl-1H-pyrazolo[3,4-d]pyrimidin-1-yl)ethyl)-5-chloro-6-cyano-2-ethoxyphenyl)-N,N-dimethylpicolinamide]"
3,< 10,"CCOc1c(C(C)n2nc(C)c3c(N)ncnc32)cc(Cl)c(C#N)c1C1CN(C(C)CO)C1 (single isomer, unassigned) [Example 224, 4-[1-(4-Amino-3-methyl-1H-pyrazolo[3,4-d]pyrimidin-1-yl)ethyl]-6-chloro-3-ethoxy-2-[1-(2-hydroxy-1-methylethyl)azetidin-3-yl]benzonitrile]"
4,< 10,"CCOc1c(C(C)n2nc(C)c3c(N)ncnc32)cc(Cl)c(F)c1C1CN(C[C@H](C)O)C1 (stereo partly drawn) [Example 143, (2S)-1-(3-{3-[1-(4-Amino-3-methyl-1H-pyrazolo[3,4-d]pyrimidin-1-yl)ethyl]-5-chloro-2-ethoxy-6-fluorophenyl}azetidin-1-yl)propan-2-ol]"
5,< 10,"COc1c(C(C)n2nc(C)c3c(N)ncnc32)cc(Cl)c(C)c1C1CN(C(=O)c2cnn(C)c2)C1 (single isomer, unassigned) [Example 117, 1-[1-(5-Chloro-2-methoxy-4-methyl-3-{1-[(1-methyl-1H-pyrazol-4-yl)carbonyl]azetidin-3-yl}phenyl)ethyl]-3-methyl-1H-pyrazolo[3,4-d]pyrimidin-4-amine]"
6,< 10,"COc1c(C(C)n2nc(C)c3c(N)ncnc32)cc(Cl)c(C)c1C1CN([C@H](C)CO)C1 (stereo partly drawn) [Example 156, (2R)-2-(3-{3-[1-(4-Amino-3-methyl-1H-pyrazolo[3,4-d]pyrimidin-1-yl)ethyl]-5-chloro-2-methoxy-6-methylphenyl}azetidin-1-yl)propan-1-ol]"
7,< 10,"COc1c(C(C)n2nc(C(F)F)c3c(N)ncnc32)cc(Cl)c(F)c1C1CN(C[C@H](C)O)C1 (stereo partly drawn) [Example 76, (2S)-1-[3-(3-{1-[4-amino-3-(difluoromethyl)-1H-pyrazolo[3,4-d]pyrimidin-1-yl]ethyl}-5-chloro-6-fluoro-2-methoxyphenyl)azetidin-1-yl]propan-2-ol]"
8,< 10,"CCNC(=O)c1c(C)c(Cl)cc(C(C)n2nc(-c3cnc4[nH]ccc4c3)c3c(N)ncnc32)c1OCC (racemic) [Example 91, 3-{1-[4-Amino-3-(1H-pyrrolo[2,3-b]pyridin-5-yl)-1H-pyrazolo[3,4-d]pyrimidin-1-yl]ethyl}-5-chloro-2-ethoxy-N-ethyl-6-methylbenzamide]"
9,< 10,"CCOc1c(C(C)n2nc(C(F)F)c3c(N)ncnc32)cc(Cl)c(F)c1C1CN(C[C@@H](C)O)C1 (stereo partly drawn) [Example 155, (2R)-1-[3-(3-{1-[4-Amino-3-(difluoromethyl)-1H-pyrazolo[3,4-d]pyrimidin-1-yl]ethyl}-5-chloro-2-ethoxy-6-fluorophenyl)azetidin-1-yl]propan-2-ol]"
10,< 10,"CCOc1c(C(C)n2nc(C)c3c(N)ncnc32)cc(Cl)c(C#N)c1C1CN(S(=O)(=O)CC)C1 (single isomer, unassigned) [Example 249, 4-[1-(4-Amino-3-methyl-1H-pyrazolo[3,4-d]pyrimidin-1-yl)ethyl]-6-chloro-3-ethoxy-2-[1-(ethylsulfonyl)azetidin-3-yl]benzonitrile]"
11,< 10,"CNC(=O)[C@@H](C)N1CC(c2c(C)c(Cl)cc(C(C)n3nc(C)c4c(N)ncnc43)c2OC)C1 (stereo partly drawn) [Example 110, (2R)-2-(3-{3-[1-(4-Amino-3-methyl-1H-pyrazolo[3,4-d]pyrimidin-1-yl)ethyl]-5-chloro-2-methoxy-6-methylphenyl}azetidin-1-yl)-N-methylpropanamide trifluoroacetate]"
12,< 10,"COc1c(C(C)n2cc(C)c3c(N)ncnc32)cc(Cl)c(C)c1-c1ccc(C(=O)N(C)C)nc1 (racemic) [Example 42, 5-{3-[1-(4-Amino-5-methyl-7H-pyrrolo[2,3-d]pyrimidin-7-yl)ethyl]-5-chloro-2-methoxy-6-methylphenyl}-N,N-dimethylpyridine-2-carboxamide]"
13,< 10,"CCOc1c(C(C)n2nc(C)c3c(N)ncnc32)cc(Cl)c(C)c1C1CN(CC(C)(C)O)C1 (single isomer, unassigned) [Example 98, 1-(3-{3-[1-(4-Amino-3-methyl-1H-pyrazolo[3,4-d]pyrimidin-1-yl)ethyl]-5-chloro-2-ethoxy-6-methylphenyl}azetidin-1-yl)-2-methylpropan-2-ol]"
14,< 10,"CCOc1c(C(C)n2nc(C)c3c(N)ncnc32)cc(Cl)c(C)c1C1CN(C[C@@H](C)O)C1 (stereo partly drawn) [Example 97, (2R)-1-(3-{3-[1-(4-Amino-3-methyl-1H-pyrazolo[3,4-d]pyrimidin-1-yl)ethyl]-5-chloro-2-ethoxy-6-methylphenyl}azetidin-1-yl)propan-2-ol]"
15,< 10,"COc1c(C(C)n2cc(-c3cn[nH]c3)c(=O)c3c(N)ncnc32)cc(Cl)c(C)c1-c1ccc(C(=O)N(C)C)nc1 (stereo not drawn) [Example 359, 5-(3-{1-[4-Amino-5-oxo-6-(1H-pyrazol-4-yl)pyrido[2,3-d]pyrimidin-8(5H)-yl]ethyl}-5-chloro-2-methoxy-6-methylphenyl)-N,N-dimethylpyridine-2-carboxamide]"
16,< 10,"COc1c(C(C)n2nc(C)c3c(N)ncnc32)cc(Cl)c(C)c1C1CN(C2(CC#N)CCC2)C1 (single isomer, unassigned) [Example 161, [1-(3-{3-[1-(4-Amino-3-methyl-1H-pyrazolo[3,4-d]pyrimidin-1-yl)ethyl]-5-chloro-2-methoxy-6-methylphenyl}azetidin-1-yl)cyclobutyl]acetonitrile]"
17,< 10,"COc1c(C(C)n2nc(C(F)F)c3c(N)ncnc32)cc(C#N)c(C)c1C1CN(CC(F)(F)F)C1 (racemic) [Example 129, 5-{1-[4-Amino-3-(difluoromethyl)-1H-pyrazolo[3,4-d]pyrimidin-1-yl]ethyl}-4-methoxy-2-methyl-3-[1-(2,2,2-trifluoroethyl)azetidin-3-yl]benzonitrile]"
18,< 10,"COc1c(C(C)n2nc(C)c3c(N)ncnc32)cc(Cl)c(C#N)c1C1CN(C(=O)N(C)C)C1 (single isomer, unassigned) [Example 296, 3-{3-[1-(4-Amino-3-methyl-1H-pyrazolo[3,4-d]pyrimidin-1-yl)ethyl]-5-chloro-6-cyano-2-methoxyphenyl}-N,N-dimethylazetidine-1-carboxamide]"
19,< 10,"COc1c(C(C)n2nc(C)c3c(N)ncnc32)cc(Cl)c(C)c1C1CN(CC(C)(C)O)C1 (stereo not drawn) [Example 158, 1-(3-{3-[1-(4-Amino-3-methyl-1H-pyrazolo[3,4-d]pyrimidin-1-yl)ethyl]-5-chloro-2-methoxy-6-methylphenyl}azetidin-1-yl)-2-methylpropan-2-ol]"
20,< 10,"CNC(=O)[C@@H](C)N1CC(c2c(C)c(C#N)cc(C(C)n3nc(C(F)F)c4c(N)ncnc43)c2OC)C1 (stereo partly drawn) [Example 135, (2R)-2-[3-(3-{1-[4-Amino-3-(difluoromethyl)-1H-pyrazolo[3,4-d]pyrimidin-1-yl]ethyl}-5-cyano-2-methoxy-6-methylphenyl)azetidin-1-yl]-N-methylpropanamide]"
21,< 10,"COc1c(C(C)n2nc(C)c3c(N)ncnc32)cc(Cl)c(C#N)c1C1CN(C(=O)NC(C)(C)C)C1 (single isomer, unassigned) [Example 292, 3-{3-[1-(4-Amino-3-methyl-1H-pyrazolo[3,4-d]pyrimidin-1-yl)ethyl]-5-chloro-6-cyano-2-methoxyphenyl}-N-(tert-butyl)azetidine-1-carboxamide]"
22,< 10,"CCOc1c(C(C)n2nc(C)c3c(N)ncnc32)cc(Cl)c(C#N)c1C1CN(CC2CCOC2)C1 (single isomer, unassigned) [Example 231, 4-[1-(4-Amino-3-methyl-1H-pyrazolo[3,4-d]pyrimidin-1-yl)ethyl]-6-chloro-3-ethoxy-2-[1-(tetrahydrofuran-3-ylmethyl)azetidin-3-yl]benzonitrile]"
23,< 10,"CCOc1c(C(C)n2nc(C)c3c(N)ncnc32)cc(Cl)c(C)c1C1CN(C(C)C)C1 (stereo not drawn) [Example 94, 1-{1-[5-Chloro-2-ethoxy-3-(1-isopropylazetidin-3-yl)-4-methylphenyl]ethyl}-3-methyl-1H-pyrazolo[3,4-d]pyrimidin-4-amine bis(trifluoroacetate)]"

row,SMILES,IC50 [nM]
1,"COc1c(C(C)n2nc(C(F)F)c3c(N)ncnc32)cc(C#N)c(C)c1C1CN(CC(F)F)C1 (racemic) [Example 136, 5-{1-[4-Amino-3-(difluoromethyl)-1H-pyrazolo[3,4-d]pyrimidin-1-yl]ethyl}-3-[1-(2,2-difluoroethyl)azetidin-3-yl]-4-methoxy-2-methylbenzonitrile]",< 10
